Molecules are shown by their SMILES.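 1) Cells in 96-well plates. 2) Compound, 48 h, 5 concentrations. 3) Linear interpolation between surrounding doses. 4) Unreached endpoint = highest concentration. GI50 = concentration required for 50% inhibition of growth.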 Activity calls are given as the source filed them. Cut-off read from the data, not from the text of the source: active = GI50 up to about 1.1 µM and inactive = higher.

Common to all, as to experiment: NCI tumour cell line growth inhibition, 48 h
Assay [1] has as its system SN12C.
For assay [2], the system named is SF-295.
The test system of assay [3] is K562.
The subject of assay [4] is NCI-H226.
Assay [5] concerns 786-0.
The test system of assay [6] is HCC 2998.
The subject of assay [7] is SF-539.
The test system of assay [8] is CCRF-CEM.
Assay [9] concerns SR.
In assay [10] the test system is COLO 205.
Assay [11] deals with MDA-MB-231.
For assay [12], the system named is OVCAR-5.
For assay [13], the system named is SNB-19.
The subject of assay [14] is MDA-N.
Assay [15] relates to NCI-H23.
Assay [16] concerns Malme-3M.
The test system of assay [17] is BT-549.
Assay [18] concerns SNB-75.
The test system of assay [19] is SK-OV-3.

For the molecule `CC(C)=CCC[C@@H](C)c1c2ncc[nH]c-2c(C)c(=O)c1O`, the GI50 in assay [1] is 28.8 µM (inactive); in assay [2], 16.5 µM (inactive); in assay [3] it was 21.7 µM (inactive); in assay [4] it was 16.9 µM (inactive); in assay [5], 39.4 µM (inactive); in assay [6] it was 31.9 µM (inactive). Further, the GI50 in [7] was 22.2 µM (inactive); in assay [8] it was 4.53 µM (inactive); in [9], 51.3 µM (inactive); in assay [10] it was 28.8 µM (inactive); in assay [11], 25.2 µM (inactive); in assay [12], 45.6 µM (inactive). Further, the GI50 is 25.9 µM (inactive) in assay [13]; 37.8 µM (inactive) in assay [14]; 22.4 µM (inactive) in assay [15]; 13.8 µM (inactive) in assay [16]; 30.8 µM (inactive) in assay [17]; 28.2 µM (inactive) in [18]. Further, the GI50 in assay [19] was 31.8 µM (inactive).
For `O=C(O)C1(Cc2ccc3c(c2)CCC3)Cc2ccccc2C1=O` (stereo unspecified), the GI50 was 63.7 µM (inactive) in [1]; 33.6 µM (inactive) in assay [2]; 50.5 µM (inactive) in [3]; 91.4 µM (inactive) in [4]; > 100 µM (inactive) in [5]; 43.5 µM (inactive) in assay [6]. Further, the GI50 in assay [7] was 49.1 µM (inactive); in assay [8], 35.5 µM (inactive); in assay [9] it was 59 µM (inactive); in [10] it was 52.6 µM (inactive); in [11] it was > 100 µM (inactive); in assay [12] it was > 100 µM (inactive). In addition, the GI50 in assay [13] is 79.3 µM (inactive); in assay [14], > 100 µM (inactive); in assay [15], 46.2 µM (inactive); in assay [16], > 100 µM (inactive); in [17], 37.8 µM (inactive); in [18], 38.8 µM (inactive). In addition, the GI50 in [19] is 50.6 µM (inactive).
Consider `C[C@]12CCC(=O)C=C1CC[C@@H]1[C@@H]2CC[C@]2(C)C(=O)/C(=C\c3ccccc3)C[C@@H]12`, for which the GI50 was 15.1 µM (inactive) in assay [1]; 29.9 µM (inactive) in assay [2]; > 100 µM (inactive) in [3]; 2.38 µM (inactive) in assay [4]; 26.1 µM (inactive) in [5]; 17.4 µM (inactive) in assay [6]. Besides, the GI50 in assay [7] was 21.6 µM (inactive); in assay [8] it was 2.8 µM (inactive); in assay [9] it was 4.53 µM (inactive); in assay [10] it was 24.2 µM (inactive); in [11], > 50.8 µM (inactive); in assay [12] it was 50 µM (inactive). The GI50 in [13] is 60.5 µM (inactive); in [14], 16 µM (inactive); in [15] it was 14.2 µM (inactive); in assay [16], 29.4 µM (inactive); in assay [17], 25.8 µM (inactive); in assay [18] it was 61.1 µM (inactive). Also, in [19], the GI50 is 72.3 µM (inactive).
Take `O=c1[nH]nc(-c2ccccc2)c2[nH]c3c(c12)Cc1ccccc1-3`: the GI50 is 2.32 µM (inactive) in [1]; 1.97 µM (inactive) in assay [2]; 0.839 µM (active) in [3]; 3.9 µM (inactive) in [4]; 4.8 µM (inactive) in [5]; 6.82 µM (inactive) in assay [6]. Further, the GI50 in assay [7] was 2.34 µM (inactive); in assay [8], 3.92 µM (inactive); in assay [9] it was 0.069 µM (active); in [10] it was 1.61 µM (inactive); in [11] it was 0.378 µM (active); in assay [12] it was 7.16 µM (inactive). Besides, the GI50 in assay [13] is 7.06 µM (inactive); in assay [14], 0.38 µM (active); in [15], > 26.5 µM (inactive); in assay [16], 1.08 µM (active); in [17] it was 21.7 µM (inactive); in assay [18], 3.28 µM (inactive). Moreover, the GI50 in assay [19] is 6.68 µM (inactive).

Source of the values: ChEMBL document CHEMBL1201862, “PubChem BioAssay data set” (2004).
